In ChEMBL document CHEMBL4421728, “Bach1 Inhibitors in Combination with Nrf2 Activators and Pharmaceutical Compositions Thereof” (2017):

Assays:
[1] = target: T1, Transcription regulator protein BACH1 (Homo sapiens) (UniProt O14867); experiment: Inhibition of Bach1 in normal human lung fibroblasts assessed as induction of HMOX protein expression at 0.039 uM in presence of 1 uM Nrf2 activator DMF incubated for 16 to 18 hrs by immunostaining relative to control
T1 sequence (whole entry): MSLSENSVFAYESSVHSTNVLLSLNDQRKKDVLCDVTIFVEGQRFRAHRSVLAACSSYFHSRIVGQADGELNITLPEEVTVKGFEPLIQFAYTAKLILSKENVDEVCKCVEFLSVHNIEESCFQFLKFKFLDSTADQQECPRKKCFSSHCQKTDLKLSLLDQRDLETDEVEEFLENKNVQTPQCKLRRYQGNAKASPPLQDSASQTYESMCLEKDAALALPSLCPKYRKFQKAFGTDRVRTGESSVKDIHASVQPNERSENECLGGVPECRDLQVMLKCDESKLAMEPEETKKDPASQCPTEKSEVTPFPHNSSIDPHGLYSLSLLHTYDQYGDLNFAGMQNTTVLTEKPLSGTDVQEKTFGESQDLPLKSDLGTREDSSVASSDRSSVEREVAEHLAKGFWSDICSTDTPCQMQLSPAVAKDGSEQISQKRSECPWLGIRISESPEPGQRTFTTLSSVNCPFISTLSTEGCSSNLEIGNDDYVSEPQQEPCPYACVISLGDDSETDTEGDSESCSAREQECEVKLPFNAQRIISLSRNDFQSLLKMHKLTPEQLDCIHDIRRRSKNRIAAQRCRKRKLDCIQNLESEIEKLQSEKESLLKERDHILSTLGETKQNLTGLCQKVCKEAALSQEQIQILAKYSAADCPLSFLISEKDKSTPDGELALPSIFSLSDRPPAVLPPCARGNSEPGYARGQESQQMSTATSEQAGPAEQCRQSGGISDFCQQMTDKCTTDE

[2] = target: T1, Transcription regulator protein BACH1 (Homo sapiens); experiment: Inhibition of Bach1 in normal human lung fibroblasts assessed as induction of HMOX protein expression at 0.019 uM in presence of 1 uM Nrf2 activator DMF incubated for 16 to 18 hrs by immunostaining relative to control
[3] = target: T1, Transcription regulator protein BACH1 (Homo sapiens); experiment: Inhibition of Bach1 in normal human lung fibroblasts assessed as induction of HMOX protein expression by measuring HMOX positive cells level at 0.039 uM in presence of 1 uM Nrf2 activator DMF incubated for 16 to 18 hrs by immunostaining relative to control DMSO; parameters: scale not given: the % may be the effect or the level left
[4] = target: T1, Transcription regulator protein BACH1 (Homo sapiens); experiment: Inhibition of Bach1 in normal human lung fibroblasts assessed as induction of HMOX protein expression by measuring HMOX positive cells level at 0.039 uM in presence of 0.03 uM Nrf2 activator DMF incubated for 16 to 18 hrs by immunostaining relative to control DMSO; parameters: scale not given: the % may be the effect or the level left
[5] = target: T1, Transcription regulator protein BACH1 (Homo sapiens); experiment: Inhibition of Bach1 in normal human lung fibroblasts assessed as induction of HMOX protein expression at 0.039 uM in presence of 10 uM Nrf2 activator DMF incubated for 16 to 18 hrs by immunostaining relative to control
[6] = target: T1, Transcription regulator protein BACH1 (Homo sapiens); experiment: Inhibition of Bach1 in normal human lung fibroblasts assessed as induction of HMOX protein expression by measuring HMOX positive cells level at 0.078 uM in presence of 0.03 uM Nrf2 activator DMF incubated for 16 to 18 hrs by immunostaining relative to control DMSO; parameters: scale not given: the % may be the effect or the level left
[7] = target: T1, Transcription regulator protein BACH1 (Homo sapiens); experiment: Inhibition of Bach1 in normal human lung fibroblasts assessed as induction of HMOX protein expression by measuring HMOX positive cells level at 0.078 uM in presence of 0.1 uM Nrf2 activator DMF incubated for 16 to 18 hrs by immunostaining relative to control DMSO; parameters: scale not given: the % may be the effect or the level left
[8] = target: T1, Transcription regulator protein BACH1 (Homo sapiens); experiment: Inhibition of Bach1 in normal human lung fibroblasts assessed as induction of HMOX protein expression by measuring HMOX positive cells level at 0.039 uM in presence of 10 uM Nrf2 activator DMF incubated for 16 to 18 hrs by immunostaining relative to control DMSO; parameters: scale not given: the % may be the effect or the level left
[9] = target: T1, Transcription regulator protein BACH1 (Homo sapiens); experiment: Inhibition of Bach1 in normal human lung fibroblasts assessed as induction of HMOX protein expression at 0.019 uM in presence of 0.1 uM Nrf2 activator DMF incubated for 16 to 18 hrs by immunostaining relative to control
[10] = target: T1, Transcription regulator protein BACH1 (Homo sapiens); experiment: Inhibition of Bach1 in normal human lung fibroblasts assessed as induction of HMOX protein expression at 0.078 uM in presence of 3 uM Nrf2 activator DMF incubated for 16 to 18 hrs by immunostaining relative to control
[11] = target: T1, Transcription regulator protein BACH1 (Homo sapiens); experiment: Inhibition of Bach1 in normal human lung fibroblasts assessed as induction of HMOX protein expression by measuring HMOX positive cells level at 0.039 uM in presence of 0.3 uM Nrf2 activator DMF incubated for 16 to 18 hrs by immunostaining relative to control DMSO; parameters: scale not given: the % may be the effect or the level left
[12] = target: T1, Transcription regulator protein BACH1 (Homo sapiens); experiment: Inhibition of Bach1 in normal human lung fibroblasts assessed as induction of HMOX protein expression by measuring HMOX positive cells level at 0.019 uM in presence of 0.1 uM Nrf2 activator DMF incubated for 16 to 18 hrs by immunostaining relative to control DMSO; parameters: scale not given: the % may be the effect or the level left
[13] = target: T1, Transcription regulator protein BACH1 (Homo sapiens); experiment: Inhibition of Bach1 in normal human lung fibroblasts assessed as induction of HMOX protein expression at 0.039 uM incubated for 16 to 18 hrs by immunostaining relative to control
[14] = target: T1, Transcription regulator protein BACH1 (Homo sapiens); experiment: Inhibition of Bach1 in normal human lung fibroblasts assessed as induction of HMOX protein expression at 0.078 uM incubated for 16 to 18 hrs by immunostaining relative to control
[15] = target: T1, Transcription regulator protein BACH1 (Homo sapiens); experiment: Inhibition of Bach1 in normal human lung fibroblasts assessed as induction of HMOX protein expression at 0.039 uM in presence of 3 uM Nrf2 activator DMF incubated for 16 to 18 hrs by immunostaining relative to control
[16] = target: T1, Transcription regulator protein BACH1 (Homo sapiens); experiment: Inhibition of Bach1 in normal human lung fibroblasts assessed as induction of HMOX protein expression by measuring HMOX positive cells level at 0.019 uM incubated for 16 to 18 hrs by immunostaining relative to control DMSO; parameters: scale not given: the % may be the effect or the level left
[17] = target: T1, Transcription regulator protein BACH1 (Homo sapiens); experiment: Inhibition of Bach1 in normal human lung fibroblasts assessed as induction of HMOX protein expression at 0.019 uM in presence of 0.03 uM Nrf2 activator DMF incubated for 16 to 18 hrs by immunostaining relative to control
[18] = target: T1, Transcription regulator protein BACH1 (Homo sapiens); experiment: Inhibition of Bach1 in normal human lung fibroblasts assessed as induction of HMOX protein expression by measuring HMOX positive cells level at 0.156 uM incubated for 16 to 18 hrs by immunostaining relative to control DMSO; parameters: scale not given: the % may be the effect or the level left
[19] = target: T1, Transcription regulator protein BACH1 (Homo sapiens); experiment: Inhibition of Bach1 in normal human lung fibroblasts assessed as induction of HMOX protein expression at 0.019 uM in presence of 10 uM Nrf2 activator DMF incubated for 16 to 18 hrs by immunostaining relative to control
[20] = target: T1, Transcription regulator protein BACH1 (Homo sapiens); experiment: Inhibition of Bach1 in normal human lung fibroblasts assessed as induction of HMOX protein expression at 0.078 uM in presence of 0.3 uM Nrf2 activator DMF incubated for 16 to 18 hrs by immunostaining relative to control

Structure (SMILES) | fold change (FC) [1] | fold change (FC) [2] | Activity [3] | Activity [4] | fold change (FC) [5] | Activity [6] | Activity [7] | Activity [8] | fold change (FC) [9] | fold change (FC) [10] | Activity [11] | Activity [12] | fold change (FC) [13] | fold change (FC) [14] | fold change (FC) [15] | Activity [16] | fold change (FC) [17] | Activity [18] | fold change (FC) [19] | fold change (FC) [20]
COCCNC(=O)c1cnc2c(c1)nc(Nc1nc3ccc(OC(F)(F)F)cc3s1)n2C | 1.97 | 1.57 | 23.1% | 1.53% | 4.86 | 1.72% | 7.05% | 92% | 1.13 | 3.12 | 13% | 2.55% | 1.45 | 1.46 | 2.84 | 2.31% | 1.17 | 11.3% | 4.94 | 1.43
Cn1c(Nc2nc3ccc(C(F)(F)F)cc3s2)nc2cc(C(=O)NCCOCCO)ccc21 | 2.6 | 2.17 | 38.7% | 11.9% | 5.64 | 33.5% | 44.6% | 99.2% | 1.23 | 4.2 | 18.7% | 4.52% | 2.51 | 4.34 | 4 | 19.4% | 1.31 | 96.3% | 5.12 | 3.21
CNC(=O)c1ccc2c(c1)nc(Nc1nc3ccc(OC(F)(F)F)cc3s1)n2C | – | – | – | – | – | – | – | – | – | – | – | – | 1.09 | 1.92 | – | – | – | – | – | –
CN(C)C(=O)CNC(=O)c1ccc2c(c1)nc(Nc1nc3ccc(C(F)(F)F)cc3s1)n2C | 2.1 | 1.68 | 23.5% | 5.74% | 5.13 | 5.99% | 8.24% | 94.7% | 1.15 | 4.33 | 12.8% | 2.37% | 1.37 | 1.59 | 3.01 | 3.6% | 1.1 | 28.6% | 5.75 | 1.73
